Data: patent US20230407243A1, “GENETIC PLATFORM TO INVESTIGATE THE FUNCTIONS OF BACTERIAL DRUG EFFLUX PUMPS” (priority 2022, published 2023)
Like-named read-outs stand apart in the source and are kept apart here.

How the values were obtained:
Type in all cases: cell-based, Escherichia coli
E. coli ΔtolC = assay: microbe, parasite or virus in culture; conditions: for MIC: Escherichia coli, 18 h, read-out: Minimum Inhibitory Concentration, ΔtolC; for Minimum inhibitory concentration (MIC), ΔtolC: Table 10, without pore; for Minimum inhibitory concentration (MIC), ΔtolC / Minimum Inhibitory Concentration, ΔtolC: technical duplicate; for Minimum Inhibitory Concentration, ΔtolC: Table 13A, non-porinated
In short: (§1)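 Growth inhibition was scored by OD600, with readings taken before incubation subtracted from those after. Cells were grown in MHB II at 37 °C for 18 h with aeration, against duplicate 2-fold compound series and DMSO-only wells. Inoculum: PBS suspension at OD600 ~1.0 diluted 1/2000.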

[1] = test system: wild-type E. coli K-12 str. BW25113; assay: microbe, parasite or virus in culture; conditions: technical duplicate; for MIC: Escherichia coli, BW25113
In short: as §1

E. coli EKO-35 = assay: microbe, parasite or virus in culture; conditions: for Fold change of MICs: EKO-35 compared to EKO-35 (reference); for MIC: Escherichia coli, EKO35; for MIC / Minimum inhibitory concentration (MIC), EKO-35 / Minimum Inhibitory Concentration, EKO-35: technical duplicate
In short: as §1

EKO-35 araC::mexCD Pore = assay: MIC susceptibility profiling, porinated efflux platform; conditions: for Fold changes of MICs: EKO-35 araC::mexCD Pore compared to EKO-35-Pore; for MIC: Escherichia coli, read-out: Minimum inhibitory concentration; for MIC / Minimum inhibitory concentration: EKO-35 araC::mexCD Pore, technical duplicate; for efflux pump-mediated resistance vs EKO-35-Pore: MexCD, OM compromised
In short: (§2)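 E. coli strains carrying a genomically integrated constitutive fhuA ΔC/Δ4L pore were grown 18 h in LB at 37 °C, then diluted 1/2000 in MHB II from OD600 ~1.0. Compounds were tested in duplicate, 2-fold serial titration, for 18 h at 37 °C with shaking. MIC came from OD600 with the pre-incubation background subtracted.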

EKO-35 araC::mdtBC Pore = assay: as above; conditions: for Fold changes of MICs: EKO-35 araC::mdtBC Pore compared to EKO-35-Pore; for MIC: Escherichia coli, read-out: Minimum inhibitory concentration; for MIC / Minimum inhibitory concentration: EKO-35 araC::mdtBC Pore, technical duplicate
In short: as §2

EKO-35 araC::mdtEF Pore = assay: as above; conditions: for Fold changes of MICs: EKO-35 araC::mdtEF Pore compared to EKO-35-Pore; for MIC: Escherichia coli, read-out: Minimum inhibitory concentration, EKO-35 araC::mdtEF Pore; for MIC / Minimum inhibitory concentration, EKO-35 araC::mdtEF Pore: Table 14A, porinated, technical duplicate
In short: as §2

EKO-35 araC::macAB Pore = assay: as above; conditions: for Fold changes of MICs: EKO-35 araC::macAB Pore compared to EKO-35-Pore; for MIC: Escherichia coli, read-out: Minimum inhibitory concentration; for MIC / Minimum inhibitory concentration: EKO-35 araC::macAB Pore, technical duplicate
In short: as §2

EKO-35 araC::emrKY Pore = assay: as above; conditions: for Fold changes of MICs: EKO-35 araC::emrKY Pore compared to EKO-35-Pore; for MIC: Escherichia coli, read-out: Minimum inhibitory concentration; for MIC / Minimum inhibitory concentration: EKO-35 araC::emrKY Pore, technical duplicate
In short: as §2

[2] = Table 10, without pore, read-out: Minimum inhibitory concentration (MIC), K-12
[3] = Table 13A, non-porinated, read-out: Minimum Inhibitory Concentration, K-12
[4] = Table 10, without pore, read-out: Minimum inhibitory concentration (MIC), EKO-35
[5] = Table 13A, non-porinated, read-out: Minimum Inhibitory Concentration, EKO-35

| Compound | MIC (E. coli ΔtolC) [µg/mL] | Minimum inhibitory concentration (MIC), ΔtolC (E. coli ΔtolC) [µg/mL] | MIC [1, 2] [µg/mL] | MIC [1, 3] [µg/mL] | Fold change of MICs (E. coli EKO-35) [fold] | MIC (E. coli EKO-35; [4]) [µg/mL] | MIC (E. coli EKO-35; [5]) [µg/mL] | Fold changes of MICs (EKO-35 araC::mexCD Pore) [fold] | MIC (EKO-35 araC::mexCD Pore) [µg/mL] | efflux pump-mediated resistance vs EKO-35-Pore (EKO-35 araC::mexCD Pore) | Fold changes of MICs (EKO-35 araC::mdtBC Pore) [fold] | MIC (EKO-35 araC::mdtBC Pore) [µg/mL] | Fold changes of MICs (EKO-35 araC::mdtEF Pore) [fold] | MIC (EKO-35 araC::mdtEF Pore) [µg/mL] | Fold changes of MICs (EKO-35 araC::macAB Pore) [fold] | MIC (EKO-35 araC::macAB Pore) [µg/mL] | Fold changes of MICs (EKO-35 araC::emrKY Pore) [fold] | MIC (EKO-35 araC::emrKY Pore) [µg/mL] | Minimum Inhibitory Concentration, ΔtolC (E. coli ΔtolC) [µg/mL] | Minimum inhibitory concentration (MIC), K-12 ([1]; Table 10, without pore) [µg/mL] | further results |
| --- | --- | --- | --- | --- | --- | --- | --- | --- | --- | --- | --- | --- | --- | --- | --- | --- | --- | --- | --- | --- | --- |
| CCn1cc(C(=O)O)c(=O)c2cc(F)c(N3CCNCC3)cc21 [norfloxacin] | 0.02 | 0.020 | 0.078 | 0.078 | 1 | 0.02 | 0.02 | 4 | 0.039 | increased resistance | 2 | 0.02 | 2 | 0.02 | 2 | 0.02 | 1 | 0.01 | – | – | – |
| N#CC(C#N)=NNc1cccc(Cl)c1 [CCCP] | – | 0.781 | – | – | 1 | – | – | 1 | – | – | 2 | – | 1 | – | 1 | – | 1 | – | 0.781 | 25 | Minimum Inhibitory Concentration, K-12 ([1]; Table 13A, non-porinated): 25 µg/mL; Minimum inhibitory concentration (MIC), EKO-35 (E. coli EKO-35; Table 10, without pore): 12.5 µg/mL; Minimum Inhibitory Concentration, EKO-35 (E. coli EKO-35; Table 13A, non-porinated): 12.5 µg/mL; Minimum inhibitory concentration (EKO-35 araC::mexCD Pore): 6.25 µg/mL; Minimum inhibitory concentration (EKO-35 araC::mdtBC Pore): 12.5 µg/mL; Minimum inhibitory concentration, EKO-35 araC::mdtEF Pore (EKO-35 araC::mdtEF Pore): 6.25 µg/mL; Minimum inhibitory concentration (EKO-35 araC::macAB Pore): 6.25 µg/mL; Minimum inhibitory concentration (EKO-35 araC::emrKY Pore): 6.25 µg/mL |
| Nc1ccc(S(=O)(=O)Nc2nccs2)cc1 [Sulfathiazole] | 5 | 5 | 5 | 5 | 1 | 10 | 10 | 1 | – | – | 1 | – | 2 | 10 | 2 | 10 | 1 | – | – | – | – |
| COC(=O)c1sc(N2CCCC2)c(C#N)c1-c1cccs1 [compound 10] | – | 10 | – | – | 1 | – | – | 16 | – | increased resistance | 1 | – | 16 | – | 1 | – | 1 | – | 10 | 160 | Minimum Inhibitory Concentration, K-12 ([1]; Table 13A, non-porinated): 160 µg/mL; Minimum inhibitory concentration (MIC), EKO-35 (E. coli EKO-35; Table 10, without pore): 160 µg/mL; Minimum Inhibitory Concentration, EKO-35 (E. coli EKO-35; Table 13A, non-porinated): 160 µg/mL; Minimum inhibitory concentration (EKO-35 araC::mexCD Pore): 160 µg/mL; Minimum inhibitory concentration (EKO-35 araC::mdtBC Pore): 10 µg/mL; efflux pump-mediated resistance vs EKO-35-Pore (EKO-35 araC::mdtEF Pore; MdtEF with the pore): increased resistance; Minimum inhibitory concentration, EKO-35 araC::mdtEF Pore (EKO-35 araC::mdtEF Pore): 160 µg/mL; Minimum inhibitory concentration (EKO-35 araC::macAB Pore): 10 µg/mL; Minimum inhibitory concentration (EKO-35 araC::emrKY Pore): 10 µg/mL |
| COc1cccc2c1C(=O)c1c(O)c3c(c(O)c1C2=O)C[C@@](O)(C(=O)CO)C[C@@H]3O[C@H]1C[C@H](N)[C@H](O)[C@H](C)O1 [doxorubicin] | 1.56 | 1.563 | 200 | 200 | 1 | 1.56 | 1.56 | 4 | 3.12 | – | 4 | 3.12 | 32 | 25 | 1 | 0.781 | 1 | 0.781 | – | – | efflux pump-mediated resistance vs EKO-35-Pore (EKO-35 araC::mdtBC Pore; MdtBC with the pore): associated with resistance |
